Assay results: patent US9302999B2, “Substituted triazoles as herbicides” (E. I. DU PONT DE NEMOURS AND COMPANY, priority 2012, dated 2016)

Assays:
Assay type in all cases: in vivo
corn (Zea mays) = assay: Test E pre-/postemergence: corn; conditions: Preemergence, scale 0 to 100
Excerpt: (§1) Seeds of plant species selected from corn (Zea mays), soybean (Glycine max), velvetleaf (Abutilon theophrasti), lambsquarters (Chenopodium album), poinsettia, wild (wild poinsettia, Euphorbia heterophylla), pigweed, palmer (palmer pigweed, Amaranthus palmeri), waterhemp (common waterhemp, Amaranthus rudis), smartweed (ladysthumb smartweed, Polygonum persicaria), surinam grass (Brachiaria decumbens), crabgrass, large (large crabgrass, Digitaria sanguinalis), crabgrass, Brazil (Brazilian crabgrass, Digitaria horizontalis), panicum, fall (fall panicum, Panicum dichotomiflorum), foxtail, giant (giant foxtail, Setaria faberii), foxtail, green (green foxtail, Setaria viridis), goosegrass (Eleusine indica), johnsongrass (Sorghum halepense), ragweed (common ragweed, Ambrosia elation), barnyardgrass (Echinochloa crus-galli), sandbur (southern sandbur, Cenchrus echinatus), arrowleaf sida (Sida rhombifolia), ryegrass, Italian (Italian ryegrass, Lolium multiflorum), dayflower, (VA) (Virginia dayflower, Commelina virginica), field bindweed (Convolvulus arvensis), cocklebur (common cocklebur, Xanthium strumarium), morningglory (Ipomoea coccinea), nightshade (eastern black nightshade, Solanum ptycanthum), kochia (Kochia scoparia), nutsedge, yellow (yellow nutsedge, Cyperus esculentus) and beggarticks (hairy beggarticks, Bidens pilosa) were planted into a silt loam soil and treated preemergence with test chemicals formulated in a non-phytotoxic solvent mixture which included a surfactant. At the same time, plants selected from these crop and weed species were planted in pots containing a growing medium comprising spaghnum peat moss, vermiculite, wetting agent and starter nutrients and treated with postemergence applications of some of the test chemicals formulated in the same manner. Plants ranged in height from 2 to 18 cm for postemergence treatments (1- to 4-leaf stage).
(§2) Treated plants and controls were maintained in a greenhouse for 14 to 21 days, after which time all species were compared to controls and visually evaluated. Plant response ratings, summarized in Table E, are based on a scale of 0 to 100 where 0 is no effect and 100 is complete control. A dash (-) response means no test result.

[1] = tested on: ryegrass, Italian (Italian ryegrass, Lolium multiflorum); assay: Test E pre-/postemergence: ryegrass, Italian; conditions: Preemergence, scale 0 to 100
Excerpt: as §1, §2

[2] = tested on: ducksalad (HETLI, Heteranthera limosa); assay: Test G paddy, alone and in combination: ducksalad; conditions: evaluated after 14 days
Protocol: (§3) Seeds of smallflower umbrella sedge (CYPDI, Cyperus difformis) and ducksalad (HETLI, Heteranthera limosa) were sown on the soil surface in two separate quadrants of 11 cm tubs filled with steam pasteurized Tama soil. Simultaneously, plantings of barnyardgrass (ECHCG, Echinochloa crus-galli) and japonica rice (ORYSP, Oryza sativa) were established in separate “plug” flats. Plants were grown in a greenhouse using supplemental lighting to maintain a photoperiod of approximately 16 h; daytime and nighttime temperatures were approximately 27-30° C. and 19-22° C., respectively. After 8 days, barnyardgrass plants were transplanted to one of the remaining quadrants of the tub, and the water level was adjusted to a final depth of 3 cm. Herbicide application timing was targeted at the 2.0 to 2.5 leaf stage and the plants were treated with test chemicals formulated in a non-phytotoxic solvent. Treated plants and controls were maintained in a greenhouse for 14 days, after which time all species were compared to controls and visually evaluated. Plant response ratings are summarized in Tables G1 through G3, and are based on a scale of 0 to 100 where 0 is no effect and 100 is complete control. A dash (-) response means no test result.

[3] = tested on: foxtail, giant (giant foxtail, Setaria faberii); assay: Test E pre-/postemergence: foxtail, giant; conditions: Preemergence, scale 0 to 100
Excerpt: as §1, §2

[4] = tested on: japonica rice (ORYSP, Oryza sativa); assay: Test G paddy, alone and in combination: japonica rice; conditions: evaluated after 14 days
Protocol: as §3

[5] = tested on: nutsedge, yellow (yellow nutsedge, Cyperus esculentus); assay: Test F pre-/postemergence: nutsedge, yellow; conditions: Preemergence
Excerpt: (§4) Seeds of plant species selected from corn (Zea mays), soybean (Glycine max), velvetleaf (Abutilon theophrasti), lambsquarters (Chenopodium album), poinsettia, wild (wild poinsettia, Euphorbia heterophylla), pigweed, palmer (palmer pigweed, Amaranthus palmeri), waterhemp (common waterhemp, Amaranthus rudis), surinam grass (Brachiaria decumbens), crabgrass, Brazil (Brazilian crabgrass, Digitaria horizontalis), panicum, fall (fall panicum Panicum dichotomiflorum), crabgrass, large (large crabgrass, Digitaria sanguinalis), foxtail, giant (giant foxtail, Setaria faberii), foxtail, green (green foxtail Setaria viridis), goosegrass (Eleusine indica), ragweed (common ragweed, Ambrosia elatior), barnyardgrass (Echinochloa crus-galli), sandbur (southern sandbur, Cenchrus echinatus), arrowleaf sida (Sida rhombifolia), ryegrass, Italian (Italian ryegrass, Lolium multiflorum), dayflower, VA (Virginia (VA) dayflower, Commelina virginica), field bindweed (Convolvulus arvensis), cocklebur (common cocklebur, Xanthium strumarium), morningglory (Ipomoea coccinea), nightshade (eastern black nightshade, Solanum ptycanthum), kochia (Kochia scoparia), nutsedge, yellow (yellow nutsedge, Cyperus esculentus), johnsongrass (Sorghum halepense), smartweed (ladysthumb smartweed, Polygonum persicaria), and beggarticks (hairy beggarticks, Bidens pilosa), were planted into a silt loam soil and treated preemergence with test chemicals formulated in a non-phytotoxic solvent mixture which included a surfactant. At the same time, plants selected from these crop and weed species and also pigweed (Amaranthus retroflexus), waterhemp_RES1 (ALS/Triazine resistant common waterhemp, Amaranthus rudis) and waterhemp_RES2 (ALS/HPPD resistant common waterhemp, Amaranthus rudis) were planted in pots containing a planting medium comprising spaghnum peat moss, vermiculite, wetting agent and starter nutrients treated with postemergence applications of some of the test chemicals formulated in the same manner. Plants ranged in height from 2 to 18 cm for postemergence treatments (1- to 4-leaf stage).
as §2

[6] = tested on: waterhemp_RES1 (ALS/Triazine resistant common waterhemp, Amaranthus rudis); assay: Test F postemergence: waterhemp_RES1; conditions: scale 0 to 100
Excerpt: as §4, §2

[7] = tested on: sandbur (southern sandbur, Cenchrus echinatus); assay: Test F pre-/postemergence: sandbur
Excerpt: as §4, §2

[8] = tested on: field bindweed (Convolvulus arvensis); assay: Test F pre-/postemergence: field bindweed
Excerpt: as §4, §2

[9] = Postemergence, 4 g ai/ha, scale 0 to 100
[10] = Postemergence, 8 g ai/ha, scale 0 to 100
[11] = Postemergence, 16 g ai/ha, scale 0 to 100
[12] = Postemergence, 31 g ai/ha, scale 0 to 100
[13] = Postemergence, 62 g ai/ha, scale 0 to 100
[14] = Preemergence, 4 g ai/ha, scale 0 to 100, 0 no effect, 100 complete control
[15] = Preemergence, 8 g ai/ha, scale 0 to 100, 0 no effect, 100 complete control
[16] = Preemergence, 16 g ai/ha, scale 0 to 100 (0 no effect, 100 complete control)
[17] = Preemergence, 31 g ai/ha, scale 0 to 100 (0 no effect, 100 complete control)
[18] = Postemergence, 125 g ai/ha, scale 0 to 100

Compound: Cc1nn(-c2ccc(F)cc2)nc1Cc1ccnc(C(F)(F)F)c1 [Compound 16, 4-[[2-(4-fluorophenyl)-5-methyl-2H-1,2,3-triazol-4-yl]methyl]-2-(trifluoromethyl)pyridine]
- Plant response rating: Corn (corn (Zea mays); 8 g ai/ha): 0
- Plant response rating: Corn (corn (Zea mays); 16 g ai/ha): 0
- Plant response rating: Corn (corn (Zea mays); 31 g ai/ha): 0
- Plant response rating: Corn (corn (Zea mays); 62 g ai/ha): 20
- Plant response rating: Corn (corn (Zea mays); 125 g ai/ha): 20
- Plant response rating: Ryegrass, Italian ([1]; 8 g ai/ha): 0
- Plant response rating: Ryegrass, Italian ([1]; 16 g ai/ha): 0
- Plant response rating: Ryegrass, Italian ([1]; 31 g ai/ha): 30
- Plant response rating: Ryegrass, Italian ([1]; 62 g ai/ha): 50
- Plant response rating: Ryegrass, Italian ([1]; 125 g ai/ha): 98
- HETLI plant response rating (scale of 0 to 100) ([2]; Rate 8 g/ha): 0
- HETLI plant response rating (scale of 0 to 100) ([2]; Rate 16 g/ha): 60
- Plant response rating: Foxtail, Giant ([3]; 8 g ai/ha): 5
- Plant response rating: Foxtail, Giant ([3]; 16 g ai/ha): 80
- Plant response rating: Foxtail, Giant ([3]; 31 g ai/ha): 100
- Plant response rating: Foxtail, Giant ([3]; 125 g ai/ha): 100
- ORYSP plant response rating (scale of 0 to 100) ([4]; Rate 8 g/ha): 10
- ORYSP plant response rating (scale of 0 to 100) ([4]; Rate 16 g/ha): 15

Compound: Cc1nn(-c2ccc(C(F)(F)F)c(F)c2)nc1Cc1ccnc(C(F)(F)F)c1 [Compound 162]
- Plant response rating, Nutsedge, Yellow ([5]; 4 g ai/ha, scale 0 to 100, 0 no effect, 100 complete control): 0
- Plant response rating, Nutsedge, Yellow ([5]; 8 g ai/ha, scale 0 to 100, 0 no effect, 100 complete control): 0
- Plant response rating, Nutsedge, Yellow ([5]; 16 g ai/ha, scale 0 to 100 (0 no effect, 100 complete control)): 35
- Plant response rating, Nutsedge, Yellow ([5]; 31 g ai/ha, scale 0 to 100 (0 no effect, 100 complete control)): 35
- Plant response rating, Waterhemp, Res1 ([6]; 4 g ai/ha): 70
- Plant response rating, Waterhemp, Res1 ([6]; 8 g ai/ha): 90
- Plant response rating, Waterhemp, Res1 ([6]; 16 g ai/ha): 90
- Plant response rating, Waterhemp, Res1 ([6]; 31 g ai/ha): 95
- Plant response rating, Waterhemp, Res1 ([6]; 62 g ai/ha): 95
- Plant response rating, Sandbur [7, 9]: 10
- Plant response rating, Sandbur [7, 10]: 10
- Plant response rating, Sandbur [7, 11]: 15
- Plant response rating, Sandbur [7, 12]: 20
- Plant response rating, Sandbur [7, 13]: 20
- Plant response rating, Sandbur [7, 14]: 0
- Plant response rating, Sandbur [7, 15]: 0
- Plant response rating, Sandbur [7, 16]: 5
- Plant response rating, Sandbur [7, 17]: 15
- Plant response rating, Field Bindweed [8, 9]: 20
- Plant response rating, Field Bindweed [8, 10]: 20
- Plant response rating, Field Bindweed [8, 11]: 20
- Plant response rating, Field Bindweed [8, 12]: 30
- Plant response rating, Field Bindweed [8, 13]: 50
- Plant response rating, Field Bindweed [8, 14]: 0
- Plant response rating, Field Bindweed [8, 15]: 0
- Plant response rating, Field Bindweed [8, 16]: 5
- Plant response rating, Field Bindweed [8, 17]: 5
- Plant response rating, Field Bindweed ([8]; Preemergence, 62 g ai/ha, scale 0 to 100): 5

Compound: Cc1nn(-c2ccc(F)c(F)c2)nc1Oc1ccnc(C(F)(F)F)c1 [Compound 145]
- Plant response rating, Waterhemp, Res1 ([6]; 125 g ai/ha): 90
- Plant response rating, Sandbur [7, 10]: 10
- Plant response rating, Sandbur [7, 11]: 20
- Plant response rating, Sandbur [7, 12]: 30
- Plant response rating, Sandbur [7, 13]: 35
- Plant response rating, Sandbur [7, 18]: 35
- Plant response rating, Field Bindweed [8, 10]: 50
- Plant response rating, Field Bindweed [8, 11]: 60
- Plant response rating, Field Bindweed [8, 13]: 70
- Plant response rating, Field Bindweed [8, 18]: 75
